Experimental data as given in the NIST ThermoML archive (doi:10.1016/j.jct.2008.07.009).
± gives the expanded uncertainty stated by the source.

Assay: xn = mol fraction of the nth substance listed
Settings: 101 kPa, Liquid, Vibrating tube method

## CC(=O)N1CCOCC1 [4-acetylmorpholine] + Cc1ccccc1
293.15 K, x2 = 0.0498
  mass density: 1104.1 ± 6.1 kg/m3
293.15 K, x2 = 0.0975
  mass density: 1094.3 ± 6.1 kg/m3
293.15 K, x2 = 0.1453
  mass density: 1084 ± 6 kg/m3
293.15 K, x2 = 0.2109
  mass density: 1070.1 ± 6 kg/m3
293.15 K, x2 = 0.2873
  mass density: 1053.3 ± 6 kg/m3
293.15 K, x2 = 0.3276
  mass density: 1044.3 ± 6 kg/m3
293.15 K, x2 = 0.3865
  mass density: 1030.8 ± 6 kg/m3
293.15 K, x2 = 0.4536
  mass density: 1015.1 ± 6 kg/m3
293.15 K, x2 = 0.4953
  mass density: 1005.1 ± 6 kg/m3
293.15 K, x2 = 0.5235
  mass density: 998.4 ± 6 kg/m3
293.15 K, x2 = 0.5641
  mass density: 988.2 ± 6 kg/m3
293.15 K, x2 = 0.6033
  mass density: 978.3 ± 6 kg/m3
293.15 K, x2 = 0.6844
  mass density: 957.3 ± 6 kg/m3
293.15 K, x2 = 0.7562
  mass density: 937.8 ± 6 kg/m3
293.15 K, x2 = 0.8126
  mass density: 922.2 ± 6 kg/m3
293.15 K, x2 = 0.8843
  mass density: 901.8 ± 6 kg/m3
293.15 K, x2 = 0.9225
  mass density: 890.5 ± 6 kg/m3
293.15 K, x2 = 0.9832
  mass density: 872.3 ± 6 kg/m3
303.15 K, x2 = 0.0498
  mass density: 1096.4 ± 6.1 kg/m3
303.15 K, x2 = 0.0975
  mass density: 1086.5 ± 6.1 kg/m3
303.15 K, x2 = 0.1453
  mass density: 1076.5 ± 6 kg/m3
303.15 K, x2 = 0.2109
  mass density: 1062.5 ± 6 kg/m3
303.15 K, x2 = 0.2873
  mass density: 1045.4 ± 6 kg/m3
303.15 K, x2 = 0.3276
  mass density: 1036.5 ± 6 kg/m3
303.15 K, x2 = 0.3865
  mass density: 1022.8 ± 6 kg/m3
303.15 K, x2 = 0.4536
  mass density: 1007 ± 6 kg/m3
303.15 K, x2 = 0.4953
  mass density: 996.9 ± 6 kg/m3
303.15 K, x2 = 0.5235
  mass density: 990 ± 6 kg/m3
303.15 K, x2 = 0.5641
  mass density: 979.8 ± 6 kg/m3
303.15 K, x2 = 0.6033
  mass density: 969.9 ± 6 kg/m3
303.15 K, x2 = 0.6844
  mass density: 949 ± 6 kg/m3
303.15 K, x2 = 0.7562
  mass density: 929.6 ± 6 kg/m3
303.15 K, x2 = 0.8126
  mass density: 913.7 ± 6 kg/m3
303.15 K, x2 = 0.8843
  mass density: 893.2 ± 6 kg/m3
303.15 K, x2 = 0.9225
  mass density: 881.8 ± 6 kg/m3
303.15 K, x2 = 0.9832
  mass density: 863.3 ± 6 kg/m3
313.15 K, x2 = 0.0498
  mass density: 1087.8 ± 6.1 kg/m3
313.15 K, x2 = 0.0975
  mass density: 1077.8 ± 6 kg/m3
313.15 K, x2 = 0.1453
  mass density: 1068.2 ± 6 kg/m3
313.15 K, x2 = 0.2109
  mass density: 1054 ± 6 kg/m3
313.15 K, x2 = 0.2873
  mass density: 1037.1 ± 6 kg/m3
313.15 K, x2 = 0.3276
  mass density: 1028.1 ± 6 kg/m3
313.15 K, x2 = 0.3865
  mass density: 1014.6 ± 6 kg/m3
313.15 K, x2 = 0.4536
  mass density: 998.7 ± 6 kg/m3
313.15 K, x2 = 0.4953
  mass density: 988.7 ± 6 kg/m3
313.15 K, x2 = 0.5235
  mass density: 981.7 ± 6 kg/m3
313.15 K, x2 = 0.5641
  mass density: 971.6 ± 6 kg/m3
313.15 K, x2 = 0.6033
  mass density: 961.7 ± 6 kg/m3
313.15 K, x2 = 0.6844
  mass density: 940.7 ± 6 kg/m3
313.15 K, x2 = 0.7562
  mass density: 921.3 ± 6 kg/m3
313.15 K, x2 = 0.8126
  mass density: 905.5 ± 6 kg/m3
313.15 K, x2 = 0.8843
  mass density: 885 ± 6 kg/m3
313.15 K, x2 = 0.9225
  mass density: 873.5 ± 6 kg/m3
313.15 K, x2 = 0.9832
  mass density: 855.2 ± 6 kg/m3
323.15 K, x2 = 0.0498
  mass density: 1079.4 ± 6.1 kg/m3
323.15 K, x2 = 0.0975
  mass density: 1069.6 ± 6 kg/m3
323.15 K, x2 = 0.1453
  mass density: 1059.9 ± 6 kg/m3
323.15 K, x2 = 0.2109
  mass density: 1045.6 ± 6 kg/m3
323.15 K, x2 = 0.2873
  mass density: 1028.6 ± 6 kg/m3
323.15 K, x2 = 0.3276
  mass density: 1019.5 ± 6 kg/m3
323.15 K, x2 = 0.3865
  mass density: 1005.8 ± 6 kg/m3
323.15 K, x2 = 0.4536
  mass density: 989.8 ± 6 kg/m3
323.15 K, x2 = 0.4953
  mass density: 979.7 ± 6 kg/m3
323.15 K, x2 = 0.5235
  mass density: 972.7 ± 6 kg/m3
323.15 K, x2 = 0.5641
  mass density: 962.5 ± 6 kg/m3
323.15 K, x2 = 0.6033
  mass density: 952.5 ± 6 kg/m3
323.15 K, x2 = 0.6844
  mass density: 931.5 ± 6 kg/m3
323.15 K, x2 = 0.7562
  mass density: 912.1 ± 6 kg/m3
323.15 K, x2 = 0.8126
  mass density: 896.2 ± 6 kg/m3
323.15 K, x2 = 0.8843
  mass density: 875.6 ± 6 kg/m3
323.15 K, x2 = 0.9225
  mass density: 864.1 ± 6 kg/m3
323.15 K, x2 = 0.9832
  mass density: 845.9 ± 6 kg/m3
333.15 K, x2 = 0.0498
  mass density: 1071.2 ± 6.1 kg/m3
333.15 K, x2 = 0.0975
  mass density: 1061.4 ± 6 kg/m3
333.15 K, x2 = 0.1453
  mass density: 1051.6 ± 6 kg/m3
333.15 K, x2 = 0.2109
  mass density: 1036.8 ± 6 kg/m3
333.15 K, x2 = 0.2873
  mass density: 1020.2 ± 6 kg/m3
333.15 K, x2 = 0.3276
  mass density: 1011 ± 6 kg/m3
333.15 K, x2 = 0.3865
  mass density: 997.2 ± 6 kg/m3
333.15 K, x2 = 0.4536
  mass density: 981.2 ± 6 kg/m3
333.15 K, x2 = 0.4953
  mass density: 970.8 ± 6 kg/m3
333.15 K, x2 = 0.5235
  mass density: 964.1 ± 6 kg/m3
333.15 K, x2 = 0.5641
  mass density: 953.8 ± 6 kg/m3
333.15 K, x2 = 0.6033
  mass density: 943.8 ± 6 kg/m3
333.15 K, x2 = 0.6844
  mass density: 922.7 ± 6 kg/m3
333.15 K, x2 = 0.7562
  mass density: 903.2 ± 6 kg/m3
333.15 K, x2 = 0.8126
  mass density: 887.4 ± 6 kg/m3
333.15 K, x2 = 0.8843
  mass density: 866.8 ± 6 kg/m3
333.15 K, x2 = 0.9225
  mass density: 855.3 ± 6 kg/m3
333.15 K, x2 = 0.9832
  mass density: 837.1 ± 6 kg/m3
343.15 K, x2 = 0.0498
  mass density: 1063.2 ± 6.1 kg/m3
343.15 K, x2 = 0.0975
  mass density: 1053.3 ± 6 kg/m3
343.15 K, x2 = 0.1453
  mass density: 1043.4 ± 6 kg/m3
343.15 K, x2 = 0.2109
  mass density: 1029.2 ± 6 kg/m3
343.15 K, x2 = 0.2873
  mass density: 1012 ± 6 kg/m3
343.15 K, x2 = 0.3276
  mass density: 1002.5 ± 6 kg/m3
343.15 K, x2 = 0.3865
  mass density: 988.6 ± 6 kg/m3
343.15 K, x2 = 0.4536
  mass density: 972.2 ± 6 kg/m3
343.15 K, x2 = 0.4953
  mass density: 962.1 ± 6 kg/m3
343.15 K, x2 = 0.5235
  mass density: 954.5 ± 6 kg/m3
343.15 K, x2 = 0.5641
  mass density: 944.9 ± 6 kg/m3
343.15 K, x2 = 0.6033
  mass density: 935 ± 6 kg/m3
343.15 K, x2 = 0.6844
  mass density: 913.9 ± 6 kg/m3
343.15 K, x2 = 0.7562
  mass density: 894.7 ± 6 kg/m3
343.15 K, x2 = 0.8126
  mass density: 879.3 ± 6 kg/m3
343.15 K, x2 = 0.8843
  mass density: 857.9 ± 6 kg/m3
343.15 K, x2 = 0.9225
  mass density: 846.4 ± 6 kg/m3
343.15 K, x2 = 0.9832
  mass density: 828.2 ± 6 kg/m3
